Counter-ions that a name gives are not always drawn.

Test [1] has as its target Ribosomal protein S6 kinase alpha-1 (Homo sapiens, UniProt Q15418). The experiment in a line: Inhibition of RSK1 (unknown origin).
In test [2] the target is T1, Ribosomal protein S6 kinase alpha-3 (Homo sapiens, UniProt P51812). The experiment in a line: Inhibition of RSK2 (unknown origin).
Test [3] has as its target Ribosomal protein S6 kinase alpha-2 (Homo sapiens, UniProt Q15349). The experiment in a line: Inhibition of RSK3 (unknown origin).
Test [4] addresses T1, Ribosomal protein S6 kinase alpha-3. The experiment in a line: Inhibition of wild type RSK2 (unknown origin).
Test [5] has the same target. The experiment in a line: Inhibition of recombinant His-tagged RSK2 (unknown origin) expressed in Sf9 cells.
In test [6] the target is Ribosomal protein S6 kinase alpha-6 (Homo sapiens, UniProt Q9UK32). The experiment in a line: Inhibition of RSK4 (unknown origin).
Test [7] in a line: Inhibition of recombinant N-terminal RSK (unknown origin) expressed in Sf21 cells. The arrangement: species or system Homo sapiens.
Test [8] concerns the target T1, Ribosomal protein S6 kinase alpha-3. The experiment in a line: Inhibition of human recombinant RSK2.
For test [9] the target is unchanged. The experiment in a line: Inhibition of RSK2 expressed in human MCF7 cells incubated for 1 hrs by. It counts as cell-based.

T1 sequence (P51812 whole entry): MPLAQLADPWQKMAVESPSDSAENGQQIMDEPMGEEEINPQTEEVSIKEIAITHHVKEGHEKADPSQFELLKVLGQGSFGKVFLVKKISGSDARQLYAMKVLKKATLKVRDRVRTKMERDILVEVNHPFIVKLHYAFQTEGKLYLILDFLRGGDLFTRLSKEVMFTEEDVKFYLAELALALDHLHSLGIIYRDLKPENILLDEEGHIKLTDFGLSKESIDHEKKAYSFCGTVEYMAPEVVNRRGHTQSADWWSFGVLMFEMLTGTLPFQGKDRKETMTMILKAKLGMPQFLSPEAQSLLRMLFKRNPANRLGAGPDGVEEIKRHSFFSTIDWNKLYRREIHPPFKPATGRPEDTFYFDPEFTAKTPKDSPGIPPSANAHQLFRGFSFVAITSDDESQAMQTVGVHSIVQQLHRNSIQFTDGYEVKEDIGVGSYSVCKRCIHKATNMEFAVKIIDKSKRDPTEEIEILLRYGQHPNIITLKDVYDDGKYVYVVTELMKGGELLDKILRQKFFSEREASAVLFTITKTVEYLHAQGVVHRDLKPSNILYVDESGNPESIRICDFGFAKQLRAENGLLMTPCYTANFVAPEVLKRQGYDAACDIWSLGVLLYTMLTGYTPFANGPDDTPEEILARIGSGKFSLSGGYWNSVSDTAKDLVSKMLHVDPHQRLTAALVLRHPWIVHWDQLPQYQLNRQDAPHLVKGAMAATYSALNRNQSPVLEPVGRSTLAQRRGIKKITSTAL
Chain of Ribosomal protein S6 kinase alpha-1 (Q15418 whole entry): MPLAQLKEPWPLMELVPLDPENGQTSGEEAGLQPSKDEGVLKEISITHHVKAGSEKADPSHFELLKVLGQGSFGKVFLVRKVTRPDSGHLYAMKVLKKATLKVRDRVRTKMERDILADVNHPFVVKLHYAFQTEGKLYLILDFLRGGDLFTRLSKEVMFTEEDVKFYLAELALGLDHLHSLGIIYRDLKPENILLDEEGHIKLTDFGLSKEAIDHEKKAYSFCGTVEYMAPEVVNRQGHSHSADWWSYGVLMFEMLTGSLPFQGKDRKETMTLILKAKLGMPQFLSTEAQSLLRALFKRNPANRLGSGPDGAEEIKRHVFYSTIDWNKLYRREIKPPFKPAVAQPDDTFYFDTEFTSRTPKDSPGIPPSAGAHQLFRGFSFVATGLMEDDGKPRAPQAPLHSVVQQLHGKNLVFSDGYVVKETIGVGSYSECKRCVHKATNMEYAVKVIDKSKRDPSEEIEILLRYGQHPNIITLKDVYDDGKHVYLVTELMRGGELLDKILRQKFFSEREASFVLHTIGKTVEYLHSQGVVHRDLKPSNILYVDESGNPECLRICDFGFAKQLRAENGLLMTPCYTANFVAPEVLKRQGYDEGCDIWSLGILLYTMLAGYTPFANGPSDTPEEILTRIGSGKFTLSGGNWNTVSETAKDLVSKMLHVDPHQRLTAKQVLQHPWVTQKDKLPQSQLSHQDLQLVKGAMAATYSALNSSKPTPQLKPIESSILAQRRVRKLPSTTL
Chain of Ribosomal protein S6 kinase alpha-6 (Q9UK32 whole entry): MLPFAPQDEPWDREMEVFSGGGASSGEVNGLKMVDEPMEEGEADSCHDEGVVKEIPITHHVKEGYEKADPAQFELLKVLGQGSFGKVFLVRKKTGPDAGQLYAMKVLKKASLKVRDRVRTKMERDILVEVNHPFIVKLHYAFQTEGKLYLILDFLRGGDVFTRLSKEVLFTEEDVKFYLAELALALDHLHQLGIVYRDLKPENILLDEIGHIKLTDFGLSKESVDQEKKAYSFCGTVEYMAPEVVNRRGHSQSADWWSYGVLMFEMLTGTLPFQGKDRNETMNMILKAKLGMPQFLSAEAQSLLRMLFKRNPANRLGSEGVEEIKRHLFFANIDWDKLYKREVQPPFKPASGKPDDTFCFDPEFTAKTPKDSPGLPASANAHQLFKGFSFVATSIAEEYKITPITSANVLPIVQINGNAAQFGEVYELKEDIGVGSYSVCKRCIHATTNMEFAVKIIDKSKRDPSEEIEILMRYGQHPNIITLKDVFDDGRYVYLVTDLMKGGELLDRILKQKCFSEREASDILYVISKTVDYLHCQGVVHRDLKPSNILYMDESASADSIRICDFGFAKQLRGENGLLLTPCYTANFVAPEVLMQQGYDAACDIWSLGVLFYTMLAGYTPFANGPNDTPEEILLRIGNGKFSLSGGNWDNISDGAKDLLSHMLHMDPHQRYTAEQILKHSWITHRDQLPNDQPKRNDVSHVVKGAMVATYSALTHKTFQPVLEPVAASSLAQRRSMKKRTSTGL
Chain of Ribosomal protein S6 kinase alpha-2 (Q15349 whole entry): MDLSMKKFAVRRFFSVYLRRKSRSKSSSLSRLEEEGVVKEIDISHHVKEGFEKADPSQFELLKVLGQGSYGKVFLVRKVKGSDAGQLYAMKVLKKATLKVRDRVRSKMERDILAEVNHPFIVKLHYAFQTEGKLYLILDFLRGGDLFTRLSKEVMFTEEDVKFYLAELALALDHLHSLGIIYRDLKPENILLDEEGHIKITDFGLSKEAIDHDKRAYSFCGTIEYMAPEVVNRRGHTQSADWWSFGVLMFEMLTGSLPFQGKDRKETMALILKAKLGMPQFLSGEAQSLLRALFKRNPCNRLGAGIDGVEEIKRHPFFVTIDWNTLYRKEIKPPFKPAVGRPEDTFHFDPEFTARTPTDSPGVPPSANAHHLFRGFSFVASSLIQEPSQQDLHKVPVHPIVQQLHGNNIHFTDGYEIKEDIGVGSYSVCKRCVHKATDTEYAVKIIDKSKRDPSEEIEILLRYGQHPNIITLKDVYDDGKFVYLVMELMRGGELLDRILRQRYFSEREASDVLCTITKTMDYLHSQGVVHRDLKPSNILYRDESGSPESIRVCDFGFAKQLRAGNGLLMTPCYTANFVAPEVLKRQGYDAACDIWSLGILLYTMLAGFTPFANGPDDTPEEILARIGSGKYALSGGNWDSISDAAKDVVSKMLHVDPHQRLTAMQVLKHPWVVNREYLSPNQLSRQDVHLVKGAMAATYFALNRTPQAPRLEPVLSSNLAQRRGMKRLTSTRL

The IC50 is the midpoint of a concentration-inhibition curve. With `O=C1Nc2ccccc2/C1=C1/Nc2ccccc2/C1=N\O`, in [1], the IC50 worked out at 100 nM.

As for `CC(=O)O[C@@H]1[C@@H](OC(C)=O)[C@@H](O)[C@H](Oc2c(-c3ccc(O)cc3)oc3cc(O)cc(O)c3c2=O)O[C@H]1C`, the IC50 in test [1] was determined as 89 nM.

As to `O=C1c2ccccc2-c2c(NCCc3ccccc3)c(=O)[nH]c3cccc1c23`, the IC50 in test [1] was 1500 nM; in test [2], 2400 nM; in test [3] it was 1200 nM.

`Cc1ccc(-c2c(C(=O)CCl)n(CCCO)c3ncnc(N)c23)cc1`: inhibition in test [4] was half-maximal at 15 nM (IC50).

As for `CCCNC(=O)O[C@H]1[C@H](CCC)C[C@@H](Oc2c(-c3ccc(O)cc3)oc3cc(O)cc(O)c3c2=O)[C@H](O)[C@@H]1OC(=O)NCCC`, the IC50 in test [5] worked out at 870 nM.

On to `CCCNC(=O)O[C@@H]1[C@@H](OC(C)=O)[C@@H](O)[C@H](Oc2c(-c3ccc(O)cc3)oc3cc(O)cc(O)c3c2=O)O[C@H]1CCC`, for which the IC50 in test [6] came out at 6200 nM.

As to `CCC[C@@H]1C[C@@H](Oc2c(-c3ccc(O)cc3)oc3cc(O)cc(O)c3c2=O)[C@H](O)[C@H](OC(C)=O)[C@H]1OC(C)=O`, in test [5], the IC50 came to 870 nM.

In the case of `CC(C)CCN1c2nc(Nc3cc(F)c(O)c(F)c3)ncc2N(C)C(=O)C1C` (stereo unspecified), the 50% inhibitory concentration (IC50) in [7] is 10 nM.

`Cn1cc(C2=C(c3cn(CCCSC(=N)N)c4ccccc34)C(=O)NC2=O)c2ccccc21` [BISINDOLYLMALEIMIDE IX] yielded an IC50 in test [1] of 200 nM.

For `COC(=O)/C=C/C(=O)OC` [DIMETHYL FUMARATE], the IC50 in test [8] came out at 225000 nM.

In the case of `O=C1C[C@@H](c2ccc(O)c(O)c2)Oc2cc(O)cc(O)c21` [ERIODICTYOL], the midpoint of inhibition in test [9], the IC50, lay at 4770 nM.

In the case of `CN(C)CCCn1cc(C2=C(c3c[nH]c4ccccc34)C(=O)NC2=O)c2ccccc21` [GF-109203], the IC50 in [1] was 610 nM.

With `CC(C)=CCC1=C(O)C(=O)c2ccccc2C1=O` [LAPACHOL], in test [2], the IC50 worked out at 2000 nM.

With `Cn1cc(C2=C(c3ccc(Cl)cc3Cl)C(=O)NC2=O)c2ccccc21` [SB-216763], the IC50 in test [1] came to 100 nM.

Values taken from ChEMBL document CHEMBL5360539, “RSK inhibitors as potential anticancer agents: Discovery, optimization, and challenges” (Eur J Med Chem, 2023).
